Results: US20240166669A1, “QUINAZOLINE AMINE DERIVATIVES AS KRAS INHIBITORS” (Nikang Therapeutics, Inc., priority 2021, published 2024)

The compounds below were run against T1, K-Ras G12D (Homo sapiens, UniProt P01116, G12D) (assay: p-ERK Cellular 2-Plate Assay (Biological Example 2)). Settings: AGS cells (KRAS G12D), 3 h treatment, AlphaLISA p-ERK1/2, 2-plate; Biological Example 2 (unmarked values); read-out: AGS PERK EC50.
T1 construct: AGS (Cobioer, CBP60476) cell lines which harbor KRAS G12D mutation; host or cells: AGS
T1 sequence (P01116 1-188 isoform P01116-2 G12D): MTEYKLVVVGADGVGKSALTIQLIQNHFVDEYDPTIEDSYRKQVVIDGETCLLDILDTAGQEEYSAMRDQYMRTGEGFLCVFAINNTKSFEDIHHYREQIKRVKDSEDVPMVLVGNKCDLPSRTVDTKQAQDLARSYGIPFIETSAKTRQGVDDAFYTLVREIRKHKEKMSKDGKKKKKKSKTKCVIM
Assay type: cell-based
Method: (§1) The ability of the compound of Formula (IIA′), (II′), or (II) or a pharmaceutically acceptable salt thereof (test compound) to inhibit K-Ras G12D activity was tested using AGS (Cobioer, CBP60476) cell lines which harbor KRAS G12D mutation as described below.
(§2) AGS (Cobioer, CBP60476) were seeded in 384-well plates and cultured overnight (10.000 cells per well 40 μl total volume). The following morning, cells were treated with test compound, with staring concentration at 10 μM and 3-fold dilution down to 0.5 nM for 3 h at 37° C., DMSO treatment served as control. p-ERK was then measured using AlphaLISA SureFire Ultra p-ERK1/2 (Thr202/Tyr204) Assay Kit (Perkin Elmer, cat #ALSU-PERK) following the manufacturer's instruction as follows.
Briefly, the culture medium was removed and 20 μl 1× lysis buffer was added to each well, followed by 30 minutes incubation on a plate shaker at room temperature. Then 10 μl of lysate was transferred to a white 384-well plate. Acceptor mixture was prepared according to manufacturer's instruction. 5 μl acceptor mixture was added to the cell lysate and the plate was wrapped with foil, spun at 500 rpm for 10 s, and incubated at RT for 60 min. Donor mixture was prepared under subdued light. 5 μl donor mixture was added to the cell lysate and the plate was spun at 500 rpm for 10s and incubated at RT for another 60 min. in the dark. Signal was then measured on a EnVision 2105 multimode plate reader. Percentage inhibition was calculated with DMSO treatment as 100% of signal, and IC50 was calculated by XLfit 5.5.x.
`C#Cc1cccc2cc(O)cc(-c3ncc4c(N5CC6CCC(C5)N6)nc(OCC56CCCN5Cc5cccnc56)nc4c3F)c12` (stereo not drawn) [Example 28, 4-(4-(3,8-diazabicyclo[3.2.1]octan-3-yl)-2-((8,9-dihydro-5H-pyrido[2,3-a]-pyrrolizin-9a(7H)-yl)methoxy)-8-fluoropyrido[4,3-d]pyrimidin-7-yl)-5-ethynylnaphthalen-2-ol] gave an EC50 of 46 nM. With `C#Cc1cccc2cc(O)cc(-c3ncc4c(N5C[C@H]6CC[C@@H](C5)N6)nc(OCC56CCCN5Cc5c(OC)cccc56)nc4c3F)c12` (stereo partly drawn) [Example 29, 4-(4-((1R,5S)-3,8-diazabicyclo-[3.2.1]octan-3-yl)-8-fluoro-2-((6-methoxy-2,3-dihydro-1H-pyrrolo[2,1-a]-isoindol-9b(5H)-yl)methoxy)-pyrido[4,3-d]-pyrimidin-7-yl)-5-ethynylnaphthalen-2-ol] the EC50 was 2 nM. Compound `C#Cc1cccc2cc(O)cc(-c3ncc4c(N5C[C@H]6CC[C@@H](C5)N6)nc(OCC56CCCN5Cc5cc(OC)ccc56)nc4c3F)c12` (stereo partly drawn) [Example 30, 4-(4-((1R,5S)-3,8-diazabicyclo-[3.2.1]octan-3-yl)-8-fluoro-2-((7-methoxy-2,3-dihydro-1H-pyrrolo[2,1-a]isoindol-9b(5H)-yl)methoxy)-pyrido[4,3-d]-pyrimidin-7-yl)-5-ethynylnaphthalen-2-ol] has an EC50 of 4 nM. `C#Cc1cccc2cc(O)cc(-c3ncc4c(N5CC6CCC(C5)N6)nc(OCC56CCCN5Cc5cnccc56)nc4c3F)c12` (stereo not drawn) [Example 31, 4-(4-(3,8-diazabicyclo[3.2.1]octan-3-yl)-2-((6,7-dihydro-5H-pyrido[4,3-a]pyrrolizin-4b(9H)-yl)methoxy)-8-fluoropyrido[4,3-d]pyrimidin-7-yl)-5-ethynylnaphthalen-2-ol] gave an EC50 of 4.1 nM. With `C#Cc1cccc2cc(O)cc(-c3ncc4c(N5CC6CCC(C5)N6)nc(OCC56CCCN5Cc5ccncc56)nc4c3F)c12` (stereo not drawn) [Example 32, 4-(4-(3,8-diazabicyclo[3.2.1]octan-3-yl)-2-((8,9-dihydro-5H-pyrido[3,4-a]pyrrolizin-9a(7H)-yl)methoxy)-8-fluoropyrido[4,3-d]pyrimidin-7-yl)-5-ethynylnaphthalen-2-ol] the EC50 was 6 nM. Work on `C#Cc1cccc2cc(O)cc(-c3ncc4c(N5C[C@H]6CC[C@@H](C5)N6)nc(OCC56CCCN5Cc5c(COC)cccc56)nc4c3F)c12` (stereo partly drawn) [Example 33, 4-(4-((1R,5S)-3,8-diazabicyclo-[3.2.1]octan-3-yl)-8-fluoro-2-((6-(methoxymethyl)-2,3-dihydro-1H-pyrrolo[2,1-a]isoindol-9b(5H)-yl)methoxy)-pyrido[4,3-d]pyrimidin-7-yl)-5-ethynylnaphthalen-2-ol] yielded an EC50 of 1.4 nM. With `C#Cc1cccc2cc(O)cc(-c3ncc4c(N5C[C@H]6CC[C@@H](C5)N6)nc(OCC56CCCN5Cc5c(C(F)(F)F)cccc56)nc4c3F)c12` (stereo partly drawn) [Example 34, 4-(4-((1R,5S)-3,8-diazabicyclo[3.2.1]octan-3-yl)-8-fluoro-2-((6-(trifluoromethyl)-2,3-dihydro-1H-pyrrolo[2,1-a]isoindol-9b(5H)-yl)methoxy)pyrido-[4,3-d]pyrimidin-7-yl)-5-ethynylnaphthalen-2-ol] the EC50 was 25 nM. With `C#Cc1cccc2cc(O)cc(-c3ncc4c(N5C[C@H]6CC[C@@H](C5)N6)nc(OCC56CCCN5Cc5c6cnn5C)nc4c3F)c12` (stereo partly drawn) [Example 36, 4-(4-((1R,5S)-3,8-diazabicyclo[3.2.1]octan-3-yl)-8-fluoro-2-((1-methyl-1,5,6,8-tetrahydropyrazolo[4,3-a]pyrrolizin-3b(4H)-yl)methoxy)pyrido[4,3-d]pyrimidin-7-yl)-5-ethynylnaphthalen-2-ol] the EC50 was 5.2 nM. `C#Cc1cccc2cc(O)cc(-c3ncc4c(N5C[C@H]6CC[C@@H](C5)N6)nc(OC[C@@]56CC7COc8ccccc8C7N5C[C@H](F)C6)nc4c3F)c12` (stereo partly drawn) [Example 40, 4-(4-((1R,5S)-3,8-diazabicyclo[3.2.1]octan-3-yl)-8-fluoro-2-(((9R)-9-fluoro-6a,9,10,11a-tetrahydro-6H,7H-chromeno[3,4-b]pyrrolizin-7a(8H)-yl)methoxy)pyrido[4,3-d]pyrimidin-7-yl)-5-ethynylnaphthalen-2-ol] gave an EC50 of 3.6 nM. `C#Cc1c(F)ccc2cc(O)cc(-c3ncc4c(N5C[C@H]6CC[C@@H](C5)N6)nc(OC[C@@]56CC7COc8ccccc8C7N5C[C@@H](F)C6)nc4c3F)c12` (stereo partly drawn) [Example 41, 4-(4-((1R,5S)-3,8-diazabicyclo[3.2.1]octan-3-yl)-8-fluoro-2-(((9S)-9-fluoro-6a,9,10,11a-tetrahydro-6H,7H-chromeno[3,4-b]pyrrolizin-7a(8H)-yl)methoxy)pyrido[4,3-d]pyrimidin-7-yl)-5-ethynyl-6-fluoronaphthalen-2-ol] showed an EC50 of over 100 nM. Compound `C#Cc1c(F)ccc2cccc(-c3ncc4c(N5C[C@H]6CC[C@@H](C5)N6)nc(OCC56CCCN5CC(=CC)C6)nc4c3F)c12` (stereo partly drawn) [Example 48, 4-((1R,5S)-3,8-diazabicyclo[3.2.1]octan-3-yl)-2-((2-ethylidenetetrahydro-1H-pyrrolizin-7a(5H)-yl)methoxy)-7-(8-ethynyl-7-fluoronaphthalen-1-yl)-8-fluoropyrido[4,3-d]pyrimidine] has an EC50 of 33 nM. `C#Cc1cccc2cc(O)cc(-c3ncc4c(N5CC6CC7(CC7)C(C5)N6)nc(OCC56CCCN5CCC6)nc4c3F)c12` (stereo not drawn) [Example 53, 5-ethynyl-4-(8-fluoro-4-(3,8-diazaspiro[bicyclo[3.2.1]octane-6,1′-cyclopropan]-3-yl)-2-((tetrahydro-1H-pyrrolizin-7a(5H)-yl)methoxy)pyrido[4,3-d]pyrimidin-7-yl)naphthalen-2-ol] was tested, and the EC50 was 266 nM. In the case of `C#Cc1c(F)ccc2cccc(-c3c(Cl)cc4c(N5C[C@H]6CC[C@@H](C5)N6)nc(OCC56CCCN5CC(=C)C6)nc4c3F)c12` (stereo partly drawn) [Example 55, 4-((1R,5S)-3,8-diazabicyclo[3.2.1]octan-3-yl)-6-chloro-7-(8-ethynyl-7-fluoronaphthalen-1-yl)-8-fluoro-2-((2-methylenetetrahydro-1H-pyrrolizin-7a(5H)-yl)methoxy)quinazoline], the EC50 is reported as over 100 nM. `C#Cc1cccc2cc(O)cc(-c3c(Cl)cc4c(N5C[C@H]6CC[C@@H](C5)N6)nc(OCC56CCCN5CC(=C)C6)nc4c3F)c12` (stereo partly drawn) [Example 56, 4-(4-((1R,5S)-3,8-diazabicyclo[3.2.1]octan-3-yl)-6-chloro-8-fluoro-2-((2-methylenetetrahydro-1H-pyrrolizin-7a(5H)-yl)methoxy)quinazolin-7-yl)-5-ethynylnaphthalen-2-ol] showed an EC50 of 1.3 nM.

The compounds below were run against T1, K-Ras G12D (assay: p-ERK Cellular 1-Plate Assay (Biological Example 3)). Settings: AGS cells (KRAS G12D), 3 h treatment, AlphaLISA p-ERK1/2, 1-plate; Biological Example 3 (values marked *); read-out: AGS PERK EC50.
Assay type: cell-based
Method: as §1
as §2, with “overnight (5,000” for “overnight (10.000”, “per well,” for “per well”, “with starting” for “with staring”, “at […].” for “at 37° C.,”, “control. pERK” for “control. p-ERK”, “Ultra p-ERK/2” for “Ultra p-ERK1/2”
Briefly, the culture medium was removed and 10 μl 1× lysis buffer was added to each well, followed by 10 minutes incubation on a plate shaker at room temperature. Acceptor mixture was prepared according to manufacturer's instruction. 5 μl acceptor mixture was added to the cell lysate and the plate was wrapped with foil, spun at 500 rpm for 10s and incubated at RT for 60 min. Donor mixture was prepared under subdued light. 5 μl donor mixture was added to the cell lysate and the plate was spun at 500 rpm for 10s and incubated at RT for another 60 min. in the dark.
`C#Cc1c(F)ccc2cc(O)cc(-c3ncc4c(N5C[C@H]6CC[C@@H](C5)N6)nc(OCC56CCCCN5CC(=C)C6)nc4c3F)c12` (stereo partly drawn) [Example 43, 4-(4-((1R,5S)-3,8-diazabicyclo[3.2.1]octan-3-yl)-8-fluoro-2-((2-methylenehexahydroindolizin-8a(1H)-yl)methoxy)pyrido[4,3-d]pyrimidin-7-yl)-5-ethynyl-6-fluoronaphthalen-2-ol] was tested, and the EC50 was 18 nM. In the case of `C#Cc1c(F)ccc2cc(O)cc(-c3ncc4c(N5C[C@H]6CC[C@@H](C5)N6)nc(OCC56CCCCCN5CC(=C)C6)nc4c3F)c12` (stereo partly drawn) [Example 44, 4-(4-((1R,5S)-3,8-diazabicyclo[3.2.1]octan-3-yl)-8-fluoro-2-((2-methylenehexahydro-1H-pyrrolo[1,2-a]azepin-9a(5H)-yl)methoxy)pyrido[4,3-d]pyrimidin-7-yl)-5-ethynyl-6-fluoronaphthalen-2-ol], the EC50 is reported as over 100 nM. For `C#Cc1c(F)ccc2cc(O)cc(-c3ncc4c(N5C[C@H]6CC[C@@H](C5)N6)nc(OC[C@@H]5CC(=C)CN5C)nc4c3F)c12` [Example 46, 4-(4-((1R,5S)-3,8-diazabicyclo[3.2.1]octan-3-yl)-8-fluoro-2-(((S)-1-methyl-4-methylenepyrrolidin-2-yl)methoxy)pyrido[4,3-d]pyrimidin-7-yl)-5-ethynyl-6-fluoronaphthalen-2-ol], the EC50 was 5.3 nM. Compound `C#Cc1c(F)ccc2cccc(-c3ncc4c(N5C[C@H]6CC[C@@H](C5)N6)nc(OCC56CC(=C)CN5CC(=C)C6)nc4c3F)c12` [Example 47, 4-((1R,5S)-3,8-diazabicyclo[3.2.1]octan-3-yl)-2-((2,6-dimethylenetetrahydro-1H-pyrrolizin-7a(5H)-yl)methoxy)-7-(8-ethynyl-7-fluoronaphthalen-1-yl)-8-fluoropyrido[4,3-d]pyrimidine] has an EC50 of 52 nM.
